Results published in patent US9751885B2, “Cyclopropanamine compound and use thereof” (Takeda Pharmaceutical Company Limited, priority 2012, dated 2017).
Several values for one entry are separate records, joined by “and”; a condition that tells them apart may be missing. Equal values may be shown once. Where a name gives a salt, the structure may show the parent alone. Read-outs that look alike come from different tables or passages of the source. Marks after values point to notes of the source that are not given here.

How the values were obtained:
[1] = system: Gad1 H3K4me2 level in rat primary culture neurons; test: Gad1 H3K4 methylation induction activity in rat primary culture neurons (ChIP-qPCR); format: cell-based; settings: control without compound = 100%; for activity at 1 µM / activity at 10 µM: Rattus norvegicus, Neuron, 72 h; for activity at 1 µM: read-out: Gad1 H3K4me2 induction activity (%), compound 1 μM, 3 days, rat primary culture neurons; for activity at 10 µM: read-out: Gad1 H3K4me2 induction activity (%), compound 10 μM, 3 days, rat primary culture neurons; for Gad1 H3K4me2 induction activity (%): 3 days, rat primary culture neurons
Procedure: Gad1 H3K4 Methylation Induction Activity in Rat Primary Culture Neurons
Thereafter, the compound was added to final concentrations of 1 or 10 μM, and the cells were further cultured for 3 days. The culture supernatant was aspirated, ice-cold PBS was added, and the cell suspension was collected on ice using CELL SCRAPER (IWAKI). […] (750 μL). Furthermore, 0.3% NP40/cell lysis buffer 1 (750 μL) was added, and the cells were lysed by incubating for 5 min on ice.
Using the DNA obtained by the chromatin immunoprecipitation as a template, quantitative PCR of the Gad1 gene upstream genomic region was performed, and the measurement value was taken as the Gad1 H3K4me2 level. […] The Gad1 H3K4me2 induction by the compound was expressed by the H3K4me2 level when the compound was added, as compared to the H3K4me2 level of the control (without addition of the compound) as 100%.

[2] = system: white blood cell number, red blood cell number, platelet number; test: Evaluation of blood cell number in mouse; format: in vivo; settings: oral, Day 2 after administration
Procedure, shortened: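 Male ICR mice dosed orally at 1, 10, 50 or 100 mg/kg (suspension in 0.5% methylcellulose/0.02% citric acid/water); whole blood collected on Day 2. White cell, red cell and platelet counts per unit volume by automated haematology analyser, expressed as % of mean of untreated control group.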

[3] = Evaluation of hippocampal distribution in mouse; format: in vivo; settings: male ICR mice, 10 mg/kg oral; for concentration at 1 h: 1 hr after administration; for concentration at 0.5 h: 0.5 hr after administration
Procedure, shortened: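 Male ICR mice dosed orally at 10 mg/kg as suspension in 0.5% methylcellulose/0.02% citric acid/water. Plasma and hippocampus sampled together at 0.5, 1 or 1.5 h; LC/MS/MS concentrations gave hippocampus/plasma ratio.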

[4] = hippocampus, read-out: hippocampus concentration (mean)
[5] = plasma, read-out: plasma concentration (mean)

## Cn1cc(NC(=O)c2cccc([C@@H]3C[C@H]3NCC(C)(C)C)c2)cn1 (relative stereo) [Example 155, 3-(trans-2-((2,2-dimethylpropyl)amino)cyclopropyl)-N-(1-methyl-1H-pyrazol-4-yl)benzamide dihydrochloride]
[1]
  activity at 1 µM: 104%
  activity at 10 µM: 106%

## Cc1nnc(NC(=O)c2ccc(C)c([C@@H]3C[C@H]3NC3CCOCC3)c2)s1 (relative stereo) [Example 184, 4-methyl-N-(5-methyl-1,3,4-thiadiazol-2-yl)-3-(trans-2-(tetrahydro-2H-pyran-4-ylamino)cyclopropyl)benzamide dihydrochloride]
[1]
  activity at 1 µM: 136%
  activity at 10 µM: 122%

## Cn1cc(NC(=O)c2cccc([C@@H]3C[C@H]3NCC3CC3)c2)cn1 (relative stereo) [Example 59, 3-(trans-2-((cyclopropylmethyl)amino)cyclopropyl)-N-(1-methyl-1H-pyrazol-4-yl)benzamide dihydrochloride]
[1]
  activity at 1 µM: 206%
  activity at 10 µM: 161%
[2]; 10 mg/kg
  platelet number, percentage of compound administration group compared to control group, mean: 91.9%
  red blood cell number, percentage of compound administration group compared to control group, mean: 101.1%
  white blood cell number, percentage of compound administration group compared to control group, mean: 128.1%
[2]; 100 mg/kg
  platelet number, percentage of compound administration group compared to control group, mean: 91.2%
  red blood cell number, percentage of compound administration group compared to control group, mean: 93.3%
  white blood cell number, percentage of compound administration group compared to control group, mean: 98.8%

## Cc1nnc(NC(=O)c2cccc([C@@H]3C[C@H]3NCC3CC3)c2)s1 (relative stereo) [Example 96, 3-(trans-2-((cyclopropylmethyl)amino)cyclopropyl)-N-(5-methyl-1,3,4-thiadiazol-2-yl)benzamide hydrochloride]
[1]
  activity at 1 µM: 122%
  activity at 10 µM: 151%
[2]; 1 mg/kg
  platelet number, percentage of compound administration group compared to control group, mean: 100.9^b %
  red blood cell number, percentage of compound administration group compared to control group, mean: 107.4^b %
  white blood cell number, percentage of compound administration group compared to control group, mean: 116.6^b %
[2]; 10 mg/kg, hydrochloride
  platelet number, percentage of compound administration group compared to control group, mean: 102.1% and 101.0^c %
  red blood cell number, percentage of compound administration group compared to control group, mean: 97.9% and 102.6^c %
  white blood cell number, percentage of compound administration group compared to control group, mean: 61.5% and 122.4^c %
[2]; 100 mg/kg
  platelet number, percentage of compound administration group compared to control group, mean: 102.4%
  red blood cell number, percentage of compound administration group compared to control group, mean: 100.7%
  white blood cell number, percentage of compound administration group compared to control group, mean: 65.5%
[3]; [4]
  concentration at 1 h: 602 ng/g
[3]; [5]
  concentration at 1 h: 1060 ng/mL

## Cn1cc(NC(=O)c2cccc([C@@H]3C[C@H]3NC3CCCC3)c2)cn1 (relative stereo) [Example 172, 3-(trans-2-(cyclopentylamino)cyclopropyl)-N-(1-methyl-1H-pyrazol-4-yl)benzamide dihydrochloride]
[1]
  activity at 1 µM: 145%
  activity at 10 µM: 204%
[2]; 10 mg/kg
  platelet number, percentage of compound administration group compared to control group, mean: 97.0%
  red blood cell number, percentage of compound administration group compared to control group, mean: 99.0%
  white blood cell number, percentage of compound administration group compared to control group, mean: 101.3%
[2]; 100 mg/kg
  platelet number, percentage of compound administration group compared to control group, mean: 99.6%
  red blood cell number, percentage of compound administration group compared to control group, mean: 97.7%
  white blood cell number, percentage of compound administration group compared to control group, mean: 130.0%
[3]; [4]
  concentration at 1 h: 419 ng/g
[3]; [5]
  concentration at 1 h: 556 ng/mL

## O=C(NC1CCOCC1)c1cccc([C@@H]2C[C@H]2NC2CCC2)c1 (relative stereo) [Example 179, 3-(trans-2-(cyclobutylamino)cyclopropyl)-N-(tetrahydro-2H-pyran-4-yl)benzamide hydrochloride]
[1]
  activity at 1 µM: 175%
  activity at 10 µM: 123%
[2]; 10 mg/kg
  platelet number, percentage of compound administration group compared to control group, mean: 94.8%
  red blood cell number, percentage of compound administration group compared to control group, mean: 102.5%
  white blood cell number, percentage of compound administration group compared to control group, mean: 94.2%
[2]; 100 mg/kg
  platelet number, percentage of compound administration group compared to control group, mean: 92.5%
  red blood cell number, percentage of compound administration group compared to control group, mean: 100.4%
  white blood cell number, percentage of compound administration group compared to control group, mean: 121.2%
[3]; [4]
  concentration at 0.5 h: 321 ng/g
[3]; [5]
  concentration at 0.5 h: 421 ng/mL

## Cc1nnc(NC(=O)c2cccc([C@@H]3C[C@H]3NC3CCN(C4CC4)CC3)c2)s1 (relative stereo) [Example 176, 3-(trans-2-((1-cyclopropylpiperidin-4-yl)amino)cyclopropyl)-N-(5-methyl-1,3,4-thiadiazol-2-yl)benzamide fumarate]
[1]
  activity at 1 µM: 139%
  activity at 10 µM: 116%
[2]; 10 mg/kg
  platelet number, percentage of compound administration group compared to control group, mean: 96.7%
  red blood cell number, percentage of compound administration group compared to control group, mean: 97.5%
  white blood cell number, percentage of compound administration group compared to control group, mean: 106.6%
[2]; 100 mg/kg
  platelet number, percentage of compound administration group compared to control group, mean: 90.2%
  red blood cell number, percentage of compound administration group compared to control group, mean: 100.8%
  white blood cell number, percentage of compound administration group compared to control group, mean: 107.8%
[3]; [4]
  concentration at 1 h: 642 ng/g
[3]; [5]
  concentration at 1 h: 515 ng/mL

## CCn1cc(NC(=O)c2cccc([C@@H]3C[C@H]3NCC3CC3)c2)cn1 (relative stereo) [Example 101, 3-(trans-2-((cyclopropylmethyl)amino)cyclopropyl)-N-(1-ethyl-1H-pyrazol-4-yl)benzamide dihydrochloride]
[1]
  activity at 1 µM: 128%
  activity at 10 µM: 135%
[2]; 10 mg/kg
  platelet number, percentage of compound administration group compared to control group, mean: 107.9%
  red blood cell number, percentage of compound administration group compared to control group, mean: 99.2%
  white blood cell number, percentage of compound administration group compared to control group, mean: 121.8%
[2]; 100 mg/kg
  platelet number, percentage of compound administration group compared to control group, mean: 108.9%
  red blood cell number, percentage of compound administration group compared to control group, mean: 98.5%
  white blood cell number, percentage of compound administration group compared to control group, mean: 100.4%
[3]; [4]
  concentration at 0.5 h: 181 ng/g
[3]; [5]
  concentration at 0.5 h: 907 ng/mL

## Cc1nnc(NC(=O)c2cccc(C3CC3NCC3CC3)c2)s1 (single isomer, unassigned) [Example 98, 3-(trans-2-((cyclopropylmethyl)amino)cyclopropyl)-N-(5-methyl-1,3,4-thiadiazol-2-yl)benzamide hydrochloride (Optical Isomer, Retention Time Long)]
[1]
  activity at 1 µM: 114%
[1]; compound 10 μM
  Gad1 H3K4me2 induction activity (%): 133%
[2]; 1 mg/kg
  platelet number, percentage of compound administration group compared to control group, mean: 105.4^b %
  red blood cell number, percentage of compound administration group compared to control group, mean: 103.6^b %
  white blood cell number, percentage of compound administration group compared to control group, mean: 96.5^b %
[2]; 10 mg/kg
  platelet number, percentage of compound administration group compared to control group, mean: 102.0^c %
  red blood cell number, percentage of compound administration group compared to control group, mean: 105.6^c %
  white blood cell number, percentage of compound administration group compared to control group, mean: 106.5^c %

## Cc1nnc(NC(=O)c2cccc([C@@H]3C[C@H]3NC3CCC(F)(F)CC3)c2)s1 (relative stereo) [Example 166, 3-(trans-2-((4,4-difluorocyclohexyl)amino)cyclopropyl)-N-(5-methyl-1,3,4-thiadiazol-2-yl)benzamide dihydrochloride]
[1]
  activity at 1 µM: 98%
  activity at 10 µM: 147%

## Cc1nnc(NC(=O)c2cccc(C3CC3NCC3CC3)c2)s1 (single isomer, unassigned) [Example 97, 3-(trans-2-((cyclopropylmethyl)amino)cyclopropyl)-N-(5-methyl-1,3,4-thiadiazol-2-yl)benzamide hydrochloride (Optical Isomer, Retention Time Short)]
[1]; compound 1 μM
  Gad1 H3K4me2 induction activity (%): 100%
[1]; compound 10 μM
  Gad1 H3K4me2 induction activity (%): 111%
[2]; 1 mg/kg
  platelet number, percentage of compound administration group compared to control group, mean: 99.4^b %
  red blood cell number, percentage of compound administration group compared to control group, mean: 102.7^b %
  white blood cell number, percentage of compound administration group compared to control group, mean: 114.4^b %
[2]; 10 mg/kg
  platelet number, percentage of compound administration group compared to control group, mean: 105.2^c %
  red blood cell number, percentage of compound administration group compared to control group, mean: 105.0^c %
  white blood cell number, percentage of compound administration group compared to control group, mean: 100.7^c %
